Measurements taken from US20120035076A1, “IRAK KINASE FAMILY AS NOVEL TARGET AND BIOMARKER FOR ALZHEIMER” (Vereniging Voor Christelijk Hoger Onderwijs …, priority 2009, published 2012).

Legend:
[1] = test system: IL-6 secretion by U373 astrocytoma cells; assay: IL-1β induced IL-6 secretion by U373 astrocytoma cells (ELISA); format: cell-based; conditions: IL-1β 10 U/ml, 6 hours, inhibitor 1250, 2500 or 5000 nM
[2] = test system: IL-6 secretion by human primary astrocytes; assay: IL-1β induced IL-6 secretion by human primary astrocytes (ELISA); format: cell-based; conditions: IL-1β 10 U/ml, 6 hours, inhibitor 1250, 2500 or 5000 nM
From the text: IL-1β has been implicated in both the initiation and propagation of neuroinflammatory changes seen in Alzheimer's disease patients. One of the main mechanisms of IL-1β is the induction of interleukin 6 (IL-6) secretion, which propagates the neuroinflammatory response in Alzheimer's disease patients. Using primary human adult astrocytes this inflammatory response as well as modulators (i.e. potential drugs for therapy) can be studied in vitro. […] In the presence of IL-1β (10 U/ml) these cells secrete IL-6 in the culture supernatant, which can be measured by ELISA. […] Cells were incubated with or without IL-1β (10 U/ml) for 6 hours in the presence of different concentration of IRAK1/4 inhibitor I (1250, 2500, or 5000 nM). IL-6 levels (pg/ml) in the culture supernatants were determined by ELISA. Shown are mean levels +/−S.D. of three replicate stimulations.

[3] = FIG. 1, listed as IRAK1/4 inhibitor

SMILES: O=C(Nc1nc2ccccc2n1CCN1CCOCC1)c1cccc([N+](=O)[O-])c1 [IRAK1/4 inhibitor I]
- IL-6 secretion in culture supernatant ([1]; FIG. 1): dose-dependently inhibits IL-6 secretion
- IL-6 secretion in culture supernatant [1, 3]: reduced
- IL-6 secretion in culture supernatant ([2]; FIG. 1): dose-dependently inhibits IL-6 secretion
- IL-6 secretion in culture supernatant [2, 3]: reduced
